Measurements as given in patent publication US10392368B2, “Pyrazolo and triazolo bicyclic compounds as JAK kinase inhibitors” (THERAVANCE BIOPHARMA R&D IP, LLC, priority 2017, dated 2019).

Columns and labels:
JAK2 = target: T1, JAK2 (Homo sapiens, UniProt O60674); test: Biochemical JAK2 kinase assay (LanthaScreen); conditions: read-out: JAK 2 (pKi) (converted)
T1 construct: GST; purchased Life Technologies
Summary of the method: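 GST-tagged recombinant JAK2 pre-incubated 1 h at ambient temperature with compound and GFP-STAT1 peptide in HEPES pH 7.5/MgCl2 buffer, then ATP added for a 1 h reaction with 1% DMSO. TR-FRET read after EDTA and Tb-anti-pSTAT1 (pTyr701) addition; IC50 from 4-parameter fit, converted to pKi by Cheng-Prusoff.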

Tyk2 = target: T2, Tyk2 (Homo sapiens, UniProt P29597); test: Biochemical Tyk2 kinase assay (LanthaScreen); conditions: read-out: Tyk 2 (pKi) (converted)
T2 construct: GST; purchased Life Technologies
Summary of the method: (§1)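 Values are pKi, calculated by Cheng-Prusoff from IC50 obtained by robust 4-parameter fitting of percent inhibition. The kinase reaction used GFP-STAT1 peptide in HEPES pH 7.5 buffer with MgCl2, EGTA and Brij-35, ATP-initiated after compound pre-incubation, 1 h at ambient temperature.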

JAK3 = target: T3, JAK3 (Homo sapiens, UniProt P52333); test: Biochemical JAK3 kinase assay (LanthaScreen); design: GST; purchased Life Technologies; conditions: for Ki: read-out: JAK 3 (pKi) (converted); for JAK3 (pKi)-JAK1 (pKi): selectivity: difference of pKi JAK3 and pKi JAK1
T3 sequence (P52333 1-1124): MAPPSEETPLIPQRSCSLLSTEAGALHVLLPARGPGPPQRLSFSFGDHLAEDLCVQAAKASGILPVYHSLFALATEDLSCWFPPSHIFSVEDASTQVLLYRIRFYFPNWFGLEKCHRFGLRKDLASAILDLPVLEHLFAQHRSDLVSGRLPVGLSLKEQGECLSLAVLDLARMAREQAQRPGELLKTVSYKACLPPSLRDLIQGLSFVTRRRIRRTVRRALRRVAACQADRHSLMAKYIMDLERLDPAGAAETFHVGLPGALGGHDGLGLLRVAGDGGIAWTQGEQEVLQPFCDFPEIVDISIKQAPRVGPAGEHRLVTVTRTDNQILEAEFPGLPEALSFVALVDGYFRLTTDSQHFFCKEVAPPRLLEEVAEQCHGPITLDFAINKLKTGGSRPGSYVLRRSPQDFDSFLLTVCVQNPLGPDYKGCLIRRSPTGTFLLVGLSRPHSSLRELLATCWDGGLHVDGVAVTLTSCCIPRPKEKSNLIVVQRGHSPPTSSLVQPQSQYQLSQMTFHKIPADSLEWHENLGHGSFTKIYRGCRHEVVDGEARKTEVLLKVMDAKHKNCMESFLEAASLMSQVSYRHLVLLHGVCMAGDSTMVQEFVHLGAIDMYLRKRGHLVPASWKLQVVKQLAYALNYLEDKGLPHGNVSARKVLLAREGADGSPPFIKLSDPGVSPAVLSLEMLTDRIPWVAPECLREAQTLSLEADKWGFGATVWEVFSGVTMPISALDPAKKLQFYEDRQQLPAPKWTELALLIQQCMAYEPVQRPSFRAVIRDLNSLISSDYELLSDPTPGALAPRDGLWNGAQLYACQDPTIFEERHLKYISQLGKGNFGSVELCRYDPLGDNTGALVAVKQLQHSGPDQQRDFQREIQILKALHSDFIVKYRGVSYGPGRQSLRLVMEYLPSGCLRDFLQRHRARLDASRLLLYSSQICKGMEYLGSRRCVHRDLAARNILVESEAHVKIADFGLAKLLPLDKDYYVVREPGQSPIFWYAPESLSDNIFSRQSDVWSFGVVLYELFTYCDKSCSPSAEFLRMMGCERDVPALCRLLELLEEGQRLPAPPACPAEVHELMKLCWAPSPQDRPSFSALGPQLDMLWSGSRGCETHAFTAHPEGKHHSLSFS
Summary of the method: as §1

JAK1 = target: T4, JAK1 (Homo sapiens, UniProt P23458); test: Biochemical JAK1 kinase assay (LanthaScreen); conditions: read-out: JAK 1 (pKi) (converted)
T4 construct: GST; purchased Life Technologies
Summary of the method: as §1

[1] = system: IL-2 stimulated pSTAT5 in Tall-1 T cells; test: Cellular JAK3 potency assay: inhibition of IL-2 stimulated pSTAT5 in Tall-1 T cells; assay type: cell-based, human; conditions: Homo sapiens, TALL-1, IL-2 stimulated pSTAT5 in Tall-1 T cells; read-out: Tall-1 (pIC50) (converted)
Summary of the method: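 In human Tall-1 T cells, IL-2 (300 ng/ml final, 30 min) drives STAT5 phosphorylation after a 1 h compound pretreatment. Lysates are assayed for pSTAT5 by AlphaLisa, and IC50 derived from signal versus concentration is expressed as pIC50.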

T1 sequence (O60674 whole entry): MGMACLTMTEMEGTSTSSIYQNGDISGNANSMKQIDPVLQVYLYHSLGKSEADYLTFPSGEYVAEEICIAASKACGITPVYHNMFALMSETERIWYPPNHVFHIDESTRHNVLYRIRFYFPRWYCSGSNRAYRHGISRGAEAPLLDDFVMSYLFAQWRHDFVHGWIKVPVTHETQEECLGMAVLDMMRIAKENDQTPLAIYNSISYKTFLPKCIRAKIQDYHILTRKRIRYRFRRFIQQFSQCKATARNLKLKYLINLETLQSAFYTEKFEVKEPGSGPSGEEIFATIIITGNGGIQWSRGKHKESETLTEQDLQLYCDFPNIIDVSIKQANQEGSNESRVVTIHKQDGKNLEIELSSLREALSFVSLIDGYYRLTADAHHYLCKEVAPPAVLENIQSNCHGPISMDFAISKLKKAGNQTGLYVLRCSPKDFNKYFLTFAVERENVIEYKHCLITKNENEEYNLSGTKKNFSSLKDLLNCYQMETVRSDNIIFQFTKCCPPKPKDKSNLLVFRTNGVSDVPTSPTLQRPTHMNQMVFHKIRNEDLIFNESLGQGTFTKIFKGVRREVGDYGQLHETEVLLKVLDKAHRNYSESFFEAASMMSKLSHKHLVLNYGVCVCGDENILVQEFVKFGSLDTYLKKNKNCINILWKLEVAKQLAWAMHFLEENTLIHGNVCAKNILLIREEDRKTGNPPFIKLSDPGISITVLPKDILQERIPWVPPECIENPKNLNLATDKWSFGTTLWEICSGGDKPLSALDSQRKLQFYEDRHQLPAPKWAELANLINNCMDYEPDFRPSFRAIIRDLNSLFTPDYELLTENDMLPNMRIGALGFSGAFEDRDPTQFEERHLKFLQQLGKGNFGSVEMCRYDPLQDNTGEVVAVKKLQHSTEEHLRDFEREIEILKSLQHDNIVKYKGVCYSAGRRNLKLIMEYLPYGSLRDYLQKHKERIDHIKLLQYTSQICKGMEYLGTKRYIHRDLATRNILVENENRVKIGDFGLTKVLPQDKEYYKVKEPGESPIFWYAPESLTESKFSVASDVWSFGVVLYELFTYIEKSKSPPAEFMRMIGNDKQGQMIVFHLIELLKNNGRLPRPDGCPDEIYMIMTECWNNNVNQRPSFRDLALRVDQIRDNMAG
T4 sequence (P23458 whole entry): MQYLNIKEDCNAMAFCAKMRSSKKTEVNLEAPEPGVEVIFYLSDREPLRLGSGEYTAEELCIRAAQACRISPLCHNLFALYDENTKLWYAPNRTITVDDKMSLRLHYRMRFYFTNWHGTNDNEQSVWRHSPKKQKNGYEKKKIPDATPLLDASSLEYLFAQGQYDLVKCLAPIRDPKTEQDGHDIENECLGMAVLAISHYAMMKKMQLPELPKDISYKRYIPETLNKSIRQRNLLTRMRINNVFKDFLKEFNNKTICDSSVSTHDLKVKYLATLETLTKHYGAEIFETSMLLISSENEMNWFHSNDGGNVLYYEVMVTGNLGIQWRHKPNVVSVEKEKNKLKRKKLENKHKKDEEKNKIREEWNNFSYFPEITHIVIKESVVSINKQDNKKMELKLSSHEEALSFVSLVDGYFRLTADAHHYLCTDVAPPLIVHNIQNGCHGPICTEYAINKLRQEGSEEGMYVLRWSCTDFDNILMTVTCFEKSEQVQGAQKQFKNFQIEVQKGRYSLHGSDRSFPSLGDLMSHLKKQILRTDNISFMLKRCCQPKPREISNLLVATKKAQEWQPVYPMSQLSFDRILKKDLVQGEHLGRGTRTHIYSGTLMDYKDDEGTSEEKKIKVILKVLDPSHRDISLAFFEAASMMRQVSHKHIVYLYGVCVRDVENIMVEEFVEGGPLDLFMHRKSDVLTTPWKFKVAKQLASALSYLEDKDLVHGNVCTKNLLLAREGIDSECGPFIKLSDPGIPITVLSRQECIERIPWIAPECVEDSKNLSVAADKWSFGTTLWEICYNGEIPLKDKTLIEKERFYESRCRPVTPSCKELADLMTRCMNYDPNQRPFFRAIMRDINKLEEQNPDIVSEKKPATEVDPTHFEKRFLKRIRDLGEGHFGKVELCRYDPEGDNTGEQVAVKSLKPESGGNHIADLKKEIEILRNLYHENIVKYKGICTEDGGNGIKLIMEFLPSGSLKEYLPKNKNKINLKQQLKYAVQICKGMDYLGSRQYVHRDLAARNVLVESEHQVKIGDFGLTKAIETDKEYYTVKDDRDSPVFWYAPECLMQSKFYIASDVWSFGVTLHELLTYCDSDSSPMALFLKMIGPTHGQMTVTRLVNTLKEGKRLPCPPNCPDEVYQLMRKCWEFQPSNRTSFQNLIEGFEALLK
T2 sequence (P29597 whole entry): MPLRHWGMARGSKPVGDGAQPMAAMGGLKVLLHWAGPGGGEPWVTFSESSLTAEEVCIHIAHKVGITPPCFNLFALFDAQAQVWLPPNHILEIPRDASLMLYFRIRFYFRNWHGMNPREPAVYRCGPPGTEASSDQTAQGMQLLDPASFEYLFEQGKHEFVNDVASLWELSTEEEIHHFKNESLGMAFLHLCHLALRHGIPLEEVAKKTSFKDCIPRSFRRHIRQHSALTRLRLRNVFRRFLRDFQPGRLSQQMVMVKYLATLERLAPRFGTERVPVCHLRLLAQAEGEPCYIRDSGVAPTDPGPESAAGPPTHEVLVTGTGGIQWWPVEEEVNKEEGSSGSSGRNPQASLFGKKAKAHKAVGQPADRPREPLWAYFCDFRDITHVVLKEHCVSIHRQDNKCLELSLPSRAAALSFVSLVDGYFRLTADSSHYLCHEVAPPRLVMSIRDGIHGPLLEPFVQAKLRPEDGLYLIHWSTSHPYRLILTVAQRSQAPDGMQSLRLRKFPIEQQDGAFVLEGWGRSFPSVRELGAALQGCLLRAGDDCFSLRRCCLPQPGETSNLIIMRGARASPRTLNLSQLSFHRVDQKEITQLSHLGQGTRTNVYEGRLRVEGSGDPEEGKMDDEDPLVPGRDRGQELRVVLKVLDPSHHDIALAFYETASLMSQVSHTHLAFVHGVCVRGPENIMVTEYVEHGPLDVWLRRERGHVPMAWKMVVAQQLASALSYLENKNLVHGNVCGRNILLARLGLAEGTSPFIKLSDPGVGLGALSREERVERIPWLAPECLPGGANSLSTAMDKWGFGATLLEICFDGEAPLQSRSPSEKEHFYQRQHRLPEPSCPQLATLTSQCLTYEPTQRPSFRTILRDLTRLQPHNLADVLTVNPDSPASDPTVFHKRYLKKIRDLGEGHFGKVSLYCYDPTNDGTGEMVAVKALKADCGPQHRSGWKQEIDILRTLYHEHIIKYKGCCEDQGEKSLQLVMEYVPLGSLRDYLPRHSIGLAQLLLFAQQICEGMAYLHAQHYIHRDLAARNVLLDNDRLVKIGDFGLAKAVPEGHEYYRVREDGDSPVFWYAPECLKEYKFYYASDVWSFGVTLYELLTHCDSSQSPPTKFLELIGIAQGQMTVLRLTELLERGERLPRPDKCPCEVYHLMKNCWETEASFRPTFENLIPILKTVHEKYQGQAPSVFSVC

Compound | Ki (JAK2) [nM] | Ki (Tyk2) [nM] | Ki (JAK3) [nM] | JAK3 (pKi)-JAK1 (pKi) (JAK3) | Ki (JAK1) [nM] | IC50 [1] [nM]
COCCN(C)C/C=C/C(=O)N1CC(COc2cc(-c3ccc(O)cc3)cc3[nH]ncc23)C1 [Compound 3-119] | 10 to 100 | > 100 | < 0.1 | B (a value of 2.3 to 3) | > 100 | 31.6 to 200
COCCN(C/C=C/C(=O)N1CC(COc2cc(-c3ccc(O)cc3)cc3[nH]ncc23)C1)CCOC [Compound 3-120] | 10 to 100 | > 100 | < 0.1 | A (a value of 3 or above) | > 100 | 31.6 to 200
COC(CN(C)C/C=C/C(=O)N1CC(COc2cc(-c3ccc(O)cc3)cc3[nH]ncc23)C1)OC [Compound 3-121] | 10 to 100 | > 100 | 0.1 to 1 | A (a value of 3 or above) | > 100 | 31.6 to 200
CN(C)C/C=C\C(=O)N1CC(COc2cc(-c3ccc(O)c(Cl)c3)cc3[nH]ncc23)C1 [Compound 3-122] | 10 to 100 | > 100 | < 0.1 | A (a value of 3 or above) | > 100 | < 31.6
CSC1CCN(C/C=C/C(=O)N2CC(COc3cc(-c4ccc(O)cc4)cc4[nH]ncc34)C2)C1 (stereo not drawn) [Compound 3-125] | > 100 | > 100 | 0.1 to 1 | A (a value of 3 or above) | > 100 | 31.6 to 200
CCSCCNC/C=C/C(=O)N1CC(COc2cc(-c3ccc(O)cc3)cc3[nH]ncc23)C1 [Compound 3-126] | 10 to 100 | > 100 | < 0.1 | A (a value of 3 or above) | > 100 | 200 to 1000
COC1CCN(C/C=C/C(=O)N2CC(COc3cc(-c4ccc(O)cc4)cc4[nH]ncc34)C2)CC1 [Compound 3-127] | 10 to 100 | > 100 | < 0.1 | A (a value of 3 or above) | > 100 | 31.6 to 200
COC1CCCN(C/C=C/C(=O)N2CC(COc3cc(-c4ccc(O)cc4)cc4[nH]ncc34)C2)C1 (stereo not drawn) [Compound 3-128] | 0.1 to 1 | > 100 | < 0.1 | A (a value of 3 or above) | > 100 | 31.6 to 200
CSC1CCN(C/C=C/C(=O)N2CC(COc3cc(-c4ccc(O)cc4)cc4[nH]ncc34)C2)CC1 [Compound 3-131] | 0.1 to 1 | > 100 | 0.1 to 1 | B (a value of 2.3 to 3) | > 100 | < 31.6
